Source: patent US12427171B2, “Krill oil composition enriched in LPC-DHA and LPC-EPA” (Aker BioMarine Human Ingredients AS, priority 2020, dated 2025)

Experiment: Mouse retinal fatty acid composition after daily gavage of free DHA, sn-1 DHA LPC or sn-2 DHA LPC for 30 days (GC/MS)
Assay type: in vivo
Conditions: for fatty acid composition of mouse retina, 12:0, Mean ± S.D. / fatty acid composition of mouse retina, 14:0, Mean ± S.D. / fatty acid composition of mouse retina, 16:0, Mean ± S.D. / fatty acid composition of mouse retina, 16:0 DMA, Mean ± S.D. / fatty acid composition of mouse retina, 16:1 (n-7), Mean ± S.D. / fatty acid composition of mouse retina, 17:1 (n-7), Mean ± S.D. / fatty acid composition of mouse retina, 18:0, Mean ± S.D. / fatty acid composition of mouse retina, 18:0 DMA, Mean ± S.D. / fatty acid composition of mouse retina, 18:1(n-7), Mean ± S.D. / fatty acid composition of mouse retina, 18:1 (n-9), Mean ± S.D. / fatty acid composition of mouse retina, 18:1 DMA, Mean ± S.D. / fatty acid composition of mouse retina, 18:2 (n-6), Mean ± S.D. / fatty acid composition of mouse retina, 18:3 (n-3), Mean ± S.D. / fatty acid composition of mouse retina, 18:3 (n-6), Mean ± S.D. / fatty acid composition of mouse retina, 20:0, Mean ± S.D. / fatty acid composition of mouse retina, 20:1 (n-9), Mean ± S.D. / fatty acid composition of mouse retina, 20:2 (n-6), Mean ± S.D. / fatty acid composition of mouse retina, 20:3 (n-6), Mean ± S.D. / fatty acid composition of mouse retina, 20:4 (n-6), Mean ± S.D. / fatty acid composition of mouse retina, 20:5 (n-3), Mean ± S.D. / fatty acid composition of mouse retina, 22:0, Mean ± S.D. / fatty acid composition of mouse retina, 22:2 (n-6), Mean ± S.D. / fatty acid composition of mouse retina, 22:4 (n-6), Mean ± S.D. / fatty acid composition of mouse retina, 22:5 (n-3), Mean ± S.D. / fatty acid composition of mouse retina, 22:6 (n-3), Mean ± S.D. / fatty acid composition of mouse retina, 24:1 (n-9), Mean ± S.D.: 1 mg DHA daily by gavage
Description: Normal male mice (C57 BL/J6, 16-week-old) were gavaged daily with 1 mg DHA in the form of free DHA, sn-1 DHA LPC, or sn-2 DHA LPC in 80 μL corn oil for 30 days. Retinal FA composition was analyzed by GC/MS. Only the values for arachidonic acid and the omega-3 FA are shown here (mean±SD, 8 animals/group). […] SD: standard deviation; sn-1 and sn-2: stereospecific numbering 1 and 2 respectively; LPC: lysophosphatidylcholine; DHA: docosahexaenoic acid.
Animals and dietary treatments: All studies in animals described here were approved by the Institutional Animal Care and Use Committee of the University of Illinois at Chicago. The retina samples were obtained from our previous studies on the brain accretion of DHA in mice and rats, which were published previously. Male Sprague-Dawley rats (8-week-old) were purchased from Harlan laboratories (Indianapolis, IN, USA). Male C57 BL/J6 mice (2-4-months-old) were purchased from Jackson Laboratories (Bar Harbor. Maine).
In the first study, male Sprague-Dawley rats (n=5 per group, 8-week-old) were gavaged daily with 10 mg of DHA (40 mg DHA/kg body weight) in the form of TAG-DHA (DHASCO algal oil, DSM Nutritional Products, Columbia, MD, USA), synthetic di-DHA PC (phosphatidylcholine), or synthetic LPC-DHA (sn-1 acyl) for 30 days. The DHA was distributed equally among the three positions of TAG-DHA [17]. […] In the second study, 4-month-old male C57 BL/J6 mice (n=8 per group) were gavaged daily with 40 mg DHA/kg body weight in the form of free (unesterified) DHA, sn-1 acyl LPC-DHA, or sn-2 acyl LPC-DHA for 30 days as described previously. In the third study, male C57 BL/J6 mice (2-months-old, n=5 per group) were fed diets enriched with natural or lipase-treated fish oil or hill oil for 30 days. The total amount of omega-3 FA (eicosapentaenoic acid (EPA)+DHA) was 2.64 g/kg diet in all the diets. The untreated hill oil contained 18% of total omega-3 FA as LPC, whereas the lipase-treated hill oil contained >80% of the total omega-3 FA as LPC. The fish oil diets contained no LPC-EPA or LPC-DHA. The animals were trans-cardially perfused with ice cold phosphate buffered saline under anesthesia and the retinas were collected and kept frozen at −80° C. until the analysis.
Analytical procedures: The total lipids of retina were extracted by Bligh and Dyer procedure and the fatty acids were methylated using methanolic HCl. The fatty acid analysis was carried out by GC/MS (gas chromatography/mass spectroscopy) using Shimadzu QP2010SE equipped with Supelco Omegawax column, as described previously. Total ion current in the range of 50-400 m/z was used for quantification of the methyl esters. For LC/MS/MS (liquid chromatography/tandem mass spectroscopy) analysis, the lipids were extracted by the procedure of Ivanova et al.. The analysis of molecular species of phospholipids was performed on an ABSciex QTRAP mass spectrometer (Redwood City, CA, USA) coupled with Agilent 2600 UPLC system (Santa Clara, CA, USA), by multiple reaction monitoring. The internal standards 17:0 LPC, di 17:0 PC, and di 17:0 PE (phosphatidylethanolamine) were used for the quantification of the corresponding molecular species, without applying any correction factors for the differences in the ion intensity of different molecular species.
Statistics and correlations: The significance of differences between treatment groups was determined by a one-way ANOVA, with Tukey post-hoc multiple comparison corrections or unpaired t-test between control and treated samples adjusted with Holm-Sidak method (Graphpad Prism 8.0, San Diego, CA, USA).

Row | SMILES | fatty acid composition of mouse retina, 12:0, Mean ± S.D. | fatty acid composition of mouse retina, 14:0, Mean ± S.D. | fatty acid composition of mouse retina, 16:0, Mean ± S.D. | fatty acid composition of mouse retina, 16:0 DMA, Mean ± S.D. | fatty acid composition of mouse retina, 16:1 (n-7), Mean ± S.D. | fatty acid composition of mouse retina, 17:1 (n-7), Mean ± S.D. | fatty acid composition of mouse retina, 18:0, Mean ± S.D. | fatty acid composition of mouse retina, 18:0 DMA, Mean ± S.D. | fatty acid composition of mouse retina, 18:1(n-7), Mean ± S.D. | fatty acid composition of mouse retina, 18:1 (n-9), Mean ± S.D. | fatty acid composition of mouse retina, 18:1 DMA, Mean ± S.D. | fatty acid composition of mouse retina, 18:2 (n-6), Mean ± S.D. | fatty acid composition of mouse retina, 18:3 (n-3), Mean ± S.D. | fatty acid composition of mouse retina, 18:3 (n-6), Mean ± S.D. | fatty acid composition of mouse retina, 20:0, Mean ± S.D. | fatty acid composition of mouse retina, 20:1 (n-9), Mean ± S.D. | fatty acid composition of mouse retina, 20:2 (n-6), Mean ± S.D. | fatty acid composition of mouse retina, 20:3 (n-6), Mean ± S.D. | fatty acid composition of mouse retina, 20:4 (n-6), Mean ± S.D. | fatty acid composition of mouse retina, 20:5 (n-3), Mean ± S.D. | other results
1 | CC/C=C\C/C=C\C/C=C\C/C=C\C/C=C\C/C=C\CCC(=O)OC[C@@H](O)COP(=O)([O-])OCC[N+](C)(C)C [sn-1 DHA LPC] | 0.73 ± 0.47 | 0.30 ± 0.17 | 14.62 ± 1.22 | 1.02 ± 0.32 | 0.47 ± 0.34 | 0.48 ± 0.38 | 15.44 ± 1.50 | 1.96 ± 0.30 | 3.82 ± 0.62 | 15.56 ± 1.16 | 0.78 ± 0.64 | 1.38 ± 0.49 | 0.51 ± 0.42 | 0.60 ± 0.47 | 1.18 ± 0.72 | 2.87 ± 0.60 | 0.88 ± 0.95 | 1.44 ± 0.35 | 5.75 ± 0.71 | 1.91 ± 1.40 | fatty acid composition of mouse retina, 22:0, Mean ± S.D.: 1.24 ± 0.95; fatty acid composition of mouse retina, 22:2 (n-6), Mean ± S.D.: 1.00 ± 0.76; fatty acid composition of mouse retina, 22:4 (n-6), Mean ± S.D.: 2.23 ± 0.87; fatty acid composition of mouse retina, 22:5 (n-3), Mean ± S.D.: 0.79 ± 0.76; fatty acid composition of mouse retina, 22:6 (n-3), Mean ± S.D.: 22.57 ± 3.12; fatty acid composition of mouse retina, 24:1 (n-9), Mean ± S.D.: 0.49 ± 0.17
2 | CC/C=C\C/C=C\C/C=C\C/C=C\C/C=C\C/C=C\CCC(=O)O [Free DHA, docosahexaenoic acid] | 0.60 ± 0.35 | 0.20 ± 0.17 | 16.11 ± 1.56 | 0.75 ± 0.56 | 0.55 ± 0.28 | 0.43 ± 0.16 | 17.32 ± 0.66 | 2.10 ± 0.88 | 4.18 ± 0.34 | 17.14 ± 0.78 | 0.85 ± 0.56 | 0.99 ± 0.65 | 0.49 ± 0.15 | 0.49 ± 0.36 | 1.90 ± 0.64 | 3.42 ± 0.59 | 0.71 ± 0.50 | 1.30 ± 0.66 | 7.42 ± 0.72 | 2.03 ± 1.21 | fatty acid composition of mouse retina, 22:0, Mean ± S.D.: 1.08 ± 0.59; fatty acid composition of mouse retina, 22:2 (n-6), Mean ± S.D.: 0.77 ± 0.51; fatty acid composition of mouse retina, 22:4 (n-6), Mean ± S.D.: 2.51 ± 0.85; fatty acid composition of mouse retina, 22:5 (n-3), Mean ± S.D.: 0.42 ± 0.15; fatty acid composition of mouse retina, 22:6 (n-3), Mean ± S.D.: 15.74 ± 1.57; fatty acid composition of mouse retina, 24:1 (n-9), Mean ± S.D.: 0.51 ± 0.25; effect on retinal DHA (mice, 1 mg DHA daily): no effect
